Results on twelve compounds are retold here after US20070191447A1, “Novel heterocyclic compound” (priority 2004, published 2007).

This assay concerns the target T1, benzodiazepine ω3 receptor (Rattus norvegicus, UniProt P16257).
T1 construct: The kidney membrane fraction (ω3) was prepared as follows; from tissue; host or cells: rat (SD, male) kidney membrane fraction
Kind of assay: Benzodiazepine ω3 receptor binding inhibition test ([3H]-PK-11195, rat kidney membrane fraction). To be noted: 1 h, compound final concentration 100 nM, [3H]-PK-11195 1 nM, 4° C., one hour, read-out: [3H]-PK-11195 Binding inhibitory rate (%). The method, then: Experiment 1: Benzodiazepine ω3 receptor and benzodiazepine ω1, ω2 receptors binding inhibition test
The benzodiazepine ω3 receptor binding assay was carried out according to the method disclosed in the literature (Mol. Phamacol., 34, 800-805, 1988), and the benzodiazepine ω1, ω2 receptor binding assays were carried out according to the method disclosed in the literature (Neurophamacol., 34, 1169-1175, 1995), respectively.
SD male rats (Japan Charles River) were decapitated, and the kidney and the cerebral cortex were collected. The kidney membrane fraction (ω3) was prepared as follows. The kidney was homogenized with ice-cold 50 mM Tris-HCl buffer (pH 7.6) of about 5-times volume of the wet tissue weight, and the homogenate was centrifuged at 4° C. for 10 minutes at 20,000 g. The pellets thus obtained were suspended again, and centrifuged at 4° C. for 10 minutes at 20,000 g. These resuspension and centrifugation procedures were repeated once more, and the obtained pellets were diluted in a 50 mM Tris-HCl buffer (pH 7.6) into a concentration of 0.1 mg of protein per one assay of the receptor binding test. The cerebral cortex membrane fraction (ω1 and ω2) was prepared as follows. The cerebral cortex was homogenized with ice-cold potassium phosphate buffer (200 mM KCl, 20 mM KOH, 20 mM KH2PO4, pH 7.4) of 15-times volume of the wet tissue weight, and the homogenate was centrifuged at 4° C. for 15 minutes at 32,500 g. The obtained pellets were suspended again and centrifuged at 4° C. for 15 minutes at 32,500 g. These resuspension and centrifugation procedures were repeated once more, and the obtained pellets were diluted in the potassium phosphate buffer into a concentration of 0.1 mg of protein per one assay of the receptor binding test. Both of these membrane fractions were frozen and stored at −80° C.
As the [^3H]-labeled ligand, [^3H]-PK-11195 (for ω3; PerkinElmer) or [^3H]-Ro-15-1788 [Flumazenil] (for ω1 and ω2; PerkinElmer) was used. […] In order to obtain total binding in the binding inhibition assay, a 0.5% DMSO, the [^3H] labeled ligand (final concentration: 1 nM), and the membrane fraction were mixed (total volume: 1 mL), and the mixture was incubated at 4° C. (for ω3) or at 25° C. (for ω1 and ω2) for one hour. In order to obtain non-specific binding, the non-labeled ligand (final concentration: 10 μM) was added instead of 0.5% DMSO, and in order to study the binding affinity of the present compounds, a solution of the present compound (final concentration: 100 nM for ω3, or 10 μM for ω1 and ω2) in DMSO was added. After the one-hour incubation, the labeled ligand bound to the receptor was collected by filtration with suction through a 0.3% polyethyleneimine-treated GF/B filter using a cell harvester, and washed with ice-cold 50 mM Tris-HCl buffer (for ω3) or ice-cold potassium phosphate buffer (for ω1 and ω2) once. The radioactivity on the GF/B filter was measured with liquid scintillation counter (manufactured by Packard, Tri Carb 2700TR). The results were expressed by the inhibition rate (%) against the binding to the labeled ligand.

`CN(C(=O)Cn1c(=O)sc2ccc(Br)cc21)c1ccccc1` [Example 55]: the inhibition at 0.1 µM was 98%.

For `CN(C(=O)Cn1c(=O)sc2c(Br)cccc21)c1ccccc1` [Example 56], the inhibition at 0.1 µM turned out to be 99%.

As to `CCCN(CCC)C(=O)Cn1c(=O)n(C)c2ccc(-c3ccccc3)cc21` [Example 60], the inhibition at 0.1 µM was found to be 100%.

Take `CN(C(=O)Cn1c(=O)n(C)c2cc(-c3ccccc3)ccc21)c1ccccc1` [Example 61]: the inhibition at 0.1 µM was 100%.

As for `CN(C(=O)Cn1c(=O)n2c3c(cccc31)CCC2)c1ccccc1` [Example 113, N-Methyl-2-(2-oxo-5,6-dihydro-4H-imidazo[4,5,1-ij]quinolin-1(2H)-yl)-N-phenylacetamide], the inhibition at 0.1 µM came out at 93%.

With `CN(C(=O)Cn1c(=O)n2c3c(cc(Oc4ccccc4)cc31)CCC2)c1ccccc1` [Example 136, N-Methyl-2-(2-oxo-8-phenoxy-5,6-dihydro-4H-imidazo[4,5,1-ij]quinolin-1(2H)-yl)-N-phenylacetamide], the inhibition at 0.1 µM is 95%.

As to `CC(C(=O)N(C)c1ccccc1)n1c(=O)n2c3c(cc(Br)cc31)CCC2` (stereo not drawn) [Example 137, 2-(8-Bromo-2-oxo-5,6-dihydro-4H-imidazo[4,5,1-ij]quinolin-1(2H)-yl)-N-methyl-N-phenylpropanamide], the inhibition at 0.1 µM came out at 83%.

For the compound `CN(C(=O)C1CCc2cccc3c2n1c(=O)n3C)c1ccccc1` (stereo not drawn) [Example 142, N,1-Dimethyl-2-oxo-N-phenyl-1,2,5,6-tetrahydro-4H-imidazo[4,5,1-ij]quinoline-4-carboxamide], the inhibition at 0.1 µM came to 83%.

Consider `CN(C(=O)Cn1c(=O)oc2ccc(C(=O)c3ccccc3)cc21)c1ccccc1` [Example 373, 2-(5-Benzoyl-2-oxo-1,3-benzoxazol-3(2H) -yl)-N-methyl-N-phenyl-acetamide], for which the inhibition at 0.1 µM came out at 89%.

In the case of `CC(=O)c1cc(Br)cc2c1oc(=O)n2CC(=O)N(C)c1ccccc1` [Example 389, 2-(7-Acetyl-5-bromo-2-oxo-1,3-benzoxazol-3(2H)-yl)-N-methyl-N-phenyl-acetamide], the inhibition at 0.1 µM stood at 97%.

In the case of `CN(C(=O)Cn1c(=O)sc2ccc(-c3ccncc3)cc21)c1ccccc1` [Example 395, N-Methyl-2-(2-oxo-5-pyridin-4-yl-1,3-benzothiazol-3(2H)-yl)-N-phenyl-acetamide], the inhibition at 0.1 µM worked out at 95%.

Take `CC(C)n1c(=O)n(CC(=O)N(C)c2ccccc2)c2cc(-c3ccccc3)ccc21` [Example 401, 2-(3-Isopropyl-2-oxo-6-phenyl-2,3-dihydro-1H-benzimidazol-1-yl)-N-methyl-N-phenylacetamide]: the inhibition at 0.1 µM came to 88%.
